According to patent US10253355B2, “Instrument and system for rapid microorganism identification and antimicrobial agent susceptibility testing” (Accelerate Diagnostics, Inc., priority 2015, dated 2019):
Read-outs that look alike come from different tables or passages of the source.

Tests used:
[1] = system: Enterococcus faecalis ATCC 29212; assay: AST QC assay on AD-1 instrument, QC isolate E. faecalis ATCC 29212; format: cell-based; conditions: unit assumed
Description: (§1) The reportable range for the AST QC assay in some examples are adjusted such that the selected QC isolates have an MIC that is within the reportable range of the QC Assay. These extended ranges are only applied to QC testing and are not applied to AST assessment of patient samples. The process for assigning an MIC value to the QC organisms is the same or similar to that used for patient samples. […] This approach allows testing of, for example, CLSI recommended QC isolates without affecting the algorithms that are optimized around antimicrobial breakpoints. The algorithms used in ID QC or AST QC testing include those described above, for example, when the QC test samples are microbial isolates. For ID QC testing utilizing target microbial nucleic acids coupled to a bead, positive detection is achieved by comparing the cumulative count in the target (e.g., Green fluorescence channel) only against a threshold of objects that have brightness exceeding bead autofluorescence. Negative control detection is achieved by doing the same for eubacteria (e.g., Red fluorescence) channel only. For example, the number of bright red objects should not exceed a threshold in order to pass negative control.
(§2) The results of the identification assay drive antibiotic selection for antimicrobial susceptibility testing. The remaining samples undergo a pre-growth step to normalize growth rates during the approximately 1-hour FISH ID assay. The concentration of organisms in the purified inoculum was determined by repeating the quantitation process with a universal nucleic acid stain as previously described herein. […] Following cell immobilization, antimicrobial solutions in Mueller-Hinton agar were dispensed into the flowcells. Different antimicrobials were tested in separate flowcells, and only a single concentration of each antimicrobial was used. A growth control consisting of Mueller-Hinton agar without any antimicrobial was included for each run. A dark-field microscope and camera produced time-lapse images approximately every 10 minutes of progenitor cells growing into clones of daughter cells in each flowcell. The agar ensured daughter cells were immobilized and remained localized to each growing clone. Resistant clones grew while susceptible clones arrest or lyse over time (FIG. 90).
(§3) Custom image analysis software assigned unique spatial XY coordinates to individual progenitor cells (FIG. 91), allowing each growing clone across a series of time-lapse images to be identified. The intensity of each clone can be used as a metric of clone mass in each image. By measuring over time, this metric was used to generate growth curves for each individual clone (FIG. 92). The pattern of cell responses was used to determine the susceptibility of the overall population. Computer algorithms developed for each organism-antimicrobial combination convert microbial growth response into an MIC value using a mathematical regression model based on the response of isolates with known MICs for a single-concentration of a given antimicrobial. Once obtained, MIC values were interpreted using FDA, CLSI or EUCAST breakpoints along with expert rules to determine the categorical result (susceptible (S), intermediate (I) or resistant (R)). In addition to MICs, this technique was applied to phenotypic resistance mechanism detection.
(§4) In this example, the AST QC consumable insert consisted of 8 wells configured in a “pi” shape, as shown in the dark gray shading in FIG. 109. The AST QC panel was composed of seven CLSI recommended isolates that provide “on-scale” MIC results for all of the antimicrobial agents included in a sample blood culture test. A C. albicans isolate was used for Quality Control assessment of the […] component of the AD-1 Instrument System.
(§5) Table 9 below lists each organism and the corresponding antimicrobial agent that was tested in the AST QC assay. […]

[2] = system: Pseudomonas aeruginosa ATCC 27853; assay: AST QC assay on AD-1 instrument, QC isolate P. aeruginosa ATCC 27853; format: cell-based
Description: as §1, §2, §3, §4, §5

[3] = system: Pseudomonas aeruginosa ATCC 27853; conditions: cited from earlier work; for Organism QC Range (MIC): AST QC panel (Table 9), CLSI recommended isolate P. aeruginosa ATCC 27853; for Expected (MIC acceptance range): P. aeruginosa ATCC 27853
[4] = system: Escherichia coli ATCC 25922; assay: AST QC assay on AD-1 instrument, QC isolate E. coli ATCC 25922; format: cell-based; conditions: unit assumed
Description: as §1, §2, §3, §4, §5

[5] = system: Escherichia coli ATCC 25922; conditions: in µg/mL (unit assumed), cited from earlier work; for Organism QC Range (MIC): AST QC panel (Table 9), CLSI recommended isolate E. coli ATCC 25922; for Expected (MIC acceptance range): E. coli ATCC 25922
[6] = system: Enterococcus faecalis ATCC 29212; conditions: cited from earlier work; for Organism QC Range (MIC): AST QC panel (Table 9), CLSI recommended isolate E. faecalis ATCC 29212; for Expected (MIC acceptance range): E. faecalis ATCC 29212
[7] = AST only report (Table 10), in µg/mL (unit assumed)
[8] = ID and AST report (Table 11), in µg/mL (unit assumed)

| Compound | Result (MIC value) ([1]; AST only report (Table 10)) [µg/mL] | Result (MIC value) ([2]; AST only report (Table 10)) [µg/mL] | Result (MIC value) ([2]; ID and AST report (Table 11)) [µg/mL] | Organism QC Range (MIC) ([3]; in µg/mL (unit assumed)) | Expected (MIC acceptance range) [3, 7] | Expected (MIC acceptance range) [3, 8] | other results |
| --- | --- | --- | --- | --- | --- | --- | --- |
| C[C@H]1c2cccc(O)c2C(=O)C2=C(O)[C@]3(O)C(=O)C(C(N)=O)=C(O)[C@@H](N(C)C)[C@@H]3[C@@H](O)[C@@H]21 [Doxycycline] | 4 |  |  |  |  |  | Result (MIC value) ([1]; ID and AST report (Table 11)): 4 µg/mL |
| NCC[C@H](O)C(=O)N[C@@H]1C[C@H](N)[C@@H](O[C@H]2O[C@H](CN)[C@@H](O)[C@H](O)[C@H]2O)[C@H](O)[C@H]1O[C@H]1O[C@H](CO)[C@@H](O)[C@H](N)[C@H]1O [Amikacin] |  | 2 | 2 | 1-4 | 1-4 | 1-4 |  |
| CCO/N=C(\C(=O)N[C@@H]1C(=O)N2C(C(=O)[O-])=C(Sc3nc(-c4cc[n+](C)cc4)cs3)CS[C@H]12)c1nsc(N)n1 [Ceftaroline] | 1 |  |  |  |  |  | Result (MIC value) ([1]; ID and AST report (Table 11)): 1 µg/mL |
| C[C@@H](O)[C@H]1C(=O)N2C(C(=O)O)=C(S[C@@H]3CN[C@H](C(=O)N(C)C)C3)[C@H](C)[C@H]12 [Meropenem] |  | 0.5 | 0.5 | 0.25-1 | 0.25-1 | 0.25-1 |  |
| C[C@@H](O)[C@H]1C(=O)N2C(C(=O)O)=C(S[C@@H]3CN[C@H](C(=O)Nc4cccc(C(=O)O)c4)C3)[C@H](C)[C@H]12 [Ertapenem] |  | 4 | 4 | 2-8 | 2-8 | 2-8 |  |
| CC(C)(O/N=C(\C(=O)N[C@@H]1C(=O)N2C(C(=O)[O-])=C(C[n+]3ccccc3)CS[C@H]12)c1csc(N)n1)C(=O)O [Ceftazidime] |  |  |  |  |  |  | Result (MIC value) ([4]; AST only report (Table 10)): 0.25 µg/mL; Result (MIC value) ([4]; ID and AST report (Table 11)): 0.25 µg/mL; Organism QC Range (MIC) [5]: 1-4; Expected (MIC acceptance range) ([5]; AST only report (Table 10)): 0.06-0.5; Expected (MIC acceptance range) ([5]; ID and AST report (Table 11)): 0.06-0.5 |
| CCCCCCCCCC(=O)N[C@@H](Cc1c[nH]c2ccccc12)C(=O)N[C@H](CC(N)=O)C(=O)N[C@@H](CC(=O)O)C(=O)N[C@@H]1C(=O)NCC(=O)N[C@@H](CCCN)C(=O)N[C@@H](CC(=O)O)C(=O)N[C@H](C)C(=O)N[C@@H](CC(=O)O)C(=O)NCC(=O)N[C@H](CO)C(=O)N[C@@H]([C@H](C)CC(=O)O)C(=O)N[C@@H](CC(=O)c2ccccc2N)C(=O)O[C@@H]1C [Daptomycin] | 2 |  |  |  |  |  | Organism QC Range (MIC) ([6]; in µg/mL (unit assumed)): 1-4; Expected (MIC acceptance range) [6, 7]: 1-4; Expected (MIC acceptance range) [6, 8]: 1-4; Result (MIC value) ([1]; ID and AST report (Table 11)): 2 µg/mL |
| Cc1nnc(SCC2=C(C(=O)O)N3C(=O)[C@@H](NC(=O)Cn4cnnn4)[C@H]3SC2)s1 [Cefazolin] |  |  |  |  |  |  | Result (MIC value) ([4]; AST only report (Table 10)): 2 µg/mL; Organism QC Range (MIC) [5]: 1-4; Expected (MIC acceptance range) ([5]; AST only report (Table 10)): 1-4 |
| C[C@H]1[C@H](NC(=O)/C(=N\OC(C)(C)C(=O)O)c2csc(N)n2)C(=O)N1S(=O)(=O)O [Aztreonam] |  | 4 | 4 | 2-8 | 2-8 | 2-8 |  |
| Colistin |  | 2 | 2 | 0.5-4 |  |  | Expected (MIC acceptance range) ([3]; AST only report (Table 10)): 0.5-4^; Expected (MIC acceptance range) ([3]; ID and AST report (Table 11)): 0.5-4^ |
| Gentamicin |  | 1 | 1 | 0.5-2 |  |  | Expected (MIC acceptance range) ([3]; AST only report (Table 10)): 0.5-2^; Expected (MIC acceptance range) ([3]; ID and AST report (Table 11)): 0.5-2^ |
| CN[C@H](CC(C)C)C(=O)N[C@H]1C(=O)N[C@@H](CC(N)=O)C(=O)N[C@H]2C(=O)N[C@H]3C(=O)N[C@H](C(=O)N[C@H](C(=O)O)c4cc(O)cc(O)c4-c4cc3ccc4O)[C@H](O)c3ccc(c(Cl)c3)Oc3cc2cc(c3O[C@@H]2O[C@H](CO)[C@@H](O)[C@H](O)[C@H]2O[C@H]2C[C@](C)(N)[C@H](O)[C@H](C)O2)Oc2ccc(cc2Cl)[C@H]1O [Vancomycin] | 2 |  |  |  |  |  | Organism QC Range (MIC) ([6]; in µg/mL (unit assumed)): 0.5-2; Expected (MIC acceptance range) [6, 7]: 1-4; Expected (MIC acceptance range) [6, 8]: 1-4; Result (MIC value) ([1]; ID and AST report (Table 11)): 2 µg/mL |
| CC(=O)NC[C@H]1CN(c2ccc(N3CCOCC3)c(F)c2)C(=O)O1 [Linezolid] | 2 |  |  |  |  |  | Organism QC Range (MIC) ([6]; in µg/mL (unit assumed)): 1-4; Expected (MIC acceptance range) [6, 7]: 1-4; Expected (MIC acceptance range) [6, 8]: 1-4; Result (MIC value) ([1]; ID and AST report (Table 11)): 2 µg/mL |
| CC1(C)S[C@@H]2[C@H](NC(=O)[C@H](N)c3ccccc3)C(=O)N2[C@H]1C(=O)O [Ampicillin] | 1 |  |  |  |  |  | Organism QC Range (MIC) ([6]; in µg/mL (unit assumed)): 0.5-2; Expected (MIC acceptance range) ([6]; AST only report (Table 10)): 0.5-2^ |
| CO/N=C(\C(=O)N[C@@H]1C(=O)N2C(C(=O)[O-])=C(C[N+]3(C)CCCC3)CS[C@H]12)c1csc(N)n1 [Cefepime] |  | 2 | 2 | 0.5-4 |  |  | Expected (MIC acceptance range) ([3]; AST only report (Table 10)): 0.5-4^; Expected (MIC acceptance range) ([3]; ID and AST report (Table 11)): 0.5-4^ |
| CN(C)c1ccc(O)c2c1C[C@H]1C[C@H]3[C@H](N(C)C)C(O)=C(C(N)=O)C(=O)[C@@]3(O)C(O)=C1C2=O [Minocycline] |  |  |  |  |  |  | Result (MIC value) ([4]; AST only report (Table 10)): 0.5 µg/mL; Result (MIC value) ([4]; ID and AST report (Table 11)): 0.5 µg/mL |
| NC[C@H]1O[C@H](O[C@H]2[C@H](O)[C@@H](O[C@H]3O[C@H](CO)[C@@H](O)[C@H](N)[C@H]3O)[C@H](N)C[C@@H]2N)[C@H](N)C[C@@H]1O [Tobramycin] |  | 0.5 | 0.5 | 0.25-1 | 0.25-1 | 0.25-1 |  |
| O=C(O)c1cn(C2CC2)c2cc(N3CCNCC3)c(F)cc2c1=O [Ciprofloxacin] |  | 0.5 | 0.5 |  | 0.25-1 | 0.25-1 |  |
